Reference: US11053204B2, “Pyrimidinyloxy benzene derivatives as herbicides” (FMC Corporation, priority 2015, dated 2021)

Key:
Format in all cases: in vivo
[1] = tested on: barnyardgrass (Echinochloa crus-galli); assay: Test A preemergence, visual injury rating
Outline: (§1)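 Visual 0–100 rating (100 = complete control) taken about 10 d post-treatment relative to untreated checks. Preemergence: directed soil spray on sown loam/sand pots. Postemergence: seedlings 2–10 cm, 1–2 leaf. Non-phytotoxic solvent formulation with surfactant.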

[2] = tested on: ragweed (common ragweed, Ambrosia elatior); assay: Test A preemergence, visual injury rating
Outline: as §1

[3] = tested on: Italian ryegrass (Lolium multiflorum); assay: Test A preemergence, visual injury rating
Outline: as §1

[4] = tested on: giant foxtail (Setaria faberii); assay: Test A preemergence, visual injury rating
Outline: as §1

[5] = tested on: pigweed (Amaranthus retroflexus); assay: Test A preemergence, visual injury rating
Outline: as §1

kochia (Kochia scoparia) [6] = assay: Test A preemergence, visual injury rating
Outline: as §1

[7] = tested on: barnyardgrass (Echinochloa crus-galli); assay: Test A postemergence, visual injury rating; conditions: 0 is no effect, 100 is complete control; for Barnyardgrass plant response rating: 0 to 100 scale, approximately 10 days
Outline: as §1

[8] = tested on: blackgrass (Alopecurus myosuroides); assay: Test A postemergence, visual injury rating
Outline: as §1

[9] = tested on: ragweed (common ragweed, Ambrosia elatior); assay: Test A postemergence, visual injury rating
Outline: as §1

[10] = tested on: Italian ryegrass (Lolium multiflorum); assay: Test A postemergence, visual injury rating
Outline: as §1

[11] = tested on: wheat (Triticum aestivum); assay: Test A postemergence, visual injury rating
Outline: as §1

corn (Zea mays) = assay: Test A postemergence, visual injury rating
Outline: as §1

[12] = tested on: galium (catchweed bedstraw, Galium aparine); assay: Test A postemergence, visual injury rating
Outline: as §1

[13] = tested on: giant foxtail (Setaria faberii); assay: Test A postemergence, visual injury rating
Outline: as §1

[14] = tested on: pigweed (Amaranthus retroflexus); assay: Test A postemergence, visual injury rating
Outline: as §1

kochia (Kochia scoparia) [15] = assay: Test A postemergence, visual injury rating
Outline: as §1

[16] = tested on: ducksalad (Heteranthera limosa); assay: Test B flooded paddy test, plant response rating; conditions: 250 g ai/ha; Flood; scale of 0 to 100 where 0 is no effect and 100 is complete control; 13 to 15 days
Outline: (§2)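 Flooded 3 cm over soil; compound into paddy water; depth kept constant. Greenhouse 13–15 d.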

[17] = tested on: barnyardgrass (Echinochloa crus-galli); assay: Test B flooded paddy test, plant response rating; conditions: 250 g ai/ha; Flood; scale of 0 to 100 where 0 is no effect and 100 is complete control; 13 to 15 days
Outline: as §2

[18] = tested on: sedge, umbrella (small-flower umbrella sedge, Cyperus difformis); assay: Test B flooded paddy test, plant response rating; conditions: 250 g ai/ha; Flood; scale of 0 to 100 where 0 is no effect and 100 is complete control; 13 to 15 days
Outline: as §2

rice (Oryza sativa) = assay: Test B flooded paddy test, plant response rating; conditions: 250 g ai/ha; Flood; scale of 0 to 100 where 0 is no effect and 100 is complete control; 13 to 15 days
Outline: as §2

[19] = 31 g ai/ha, 0 to 100 scale, 0 no effect, 100 complete control
[20] = 125 g ai/ha, 0 to 100 scale (0 no effect, 100 complete control)
[21] = 31 g ai/ha, 0 to 100 scale, 0 is no effect, 100 is complete control, approximately 10 days
[22] = 125 g ai/ha, 0 is no effect, 100 is complete control
[23] = 125 g ai/ha, 0 to 100 scale, 0 is no effect, 100 is complete control, approximately 10 days
[24] = 31 g ai/ha, 0 to 100 scale (0 no effect, 100 complete control)

O=C(OCC(F)(F)C(F)(F)F)c1c(F)cccc1Oc1ncc(Br)cn1 [Compound 4]
0: Plant response rating, Barnyardgrass [1, 19] | Barnyardgrass plant response rating [1, 20] | Plant response rating, Ragweed [2, 19] | Ragweed plant response rating [2, 20] | Plant response rating, Ryegrass, Italian [3, 19] | Ryegrass, Italian plant response rating [3, 20] | Plant response rating, Foxtail, Giant [4, 19] | Foxtail, Giant plant response rating [4, 20] | Plant response rating, Pigweed [5, 19] | Pigweed plant response rating [5, 20] | Plant response rating, Kochia (kochia (Kochia scoparia) [6]; [19]) | Kochia plant response rating (kochia (Kochia scoparia) [6]; [20]) | Barnyardgrass plant response rating ([7]; 31 g ai/ha) | Barnyardgrass plant response rating (0 to 100 scale) ([7]; 125 g ai/ha) | Blackgrass plant response rating [8, 21] | Blackgrass plant response rating (0 to 100 scale) [8, 22] | Ragweed plant response rating [9, 21] | Ragweed plant response rating (0 to 100 scale) [9, 22] | Ryegrass, Italian plant response rating [10, 21] | Ryegrass, Italian plant response rating (0 to 100 scale) [10, 22] | Wheat plant response rating [11, 21] | Wheat plant response rating (0 to 100 scale) [11, 22] | Corn plant response rating (corn (Zea mays); [21]) | Corn plant response rating (0 to 100 scale) (corn (Zea mays); [22]) | Galium plant response rating [12, 21] | Galium plant response rating (0 to 100 scale) [12, 22] | Foxtail, Giant plant response rating [13, 21] | Foxtail, Giant plant response rating (0 to 100 scale) [13, 22] | Pigweed plant response rating [14, 21] | Pigweed plant response rating (0 to 100 scale) [14, 22] | Kochia plant response rating (kochia (Kochia scoparia) [15]; [21]) | Kochia plant response rating (0 to 100 scale) (kochia (Kochia scoparia) [15]; [22]) | Plant response rating, Ducksalad [16] | Plant response rating, Barnyardgrass [17] | Plant response rating, Sedge, Umbrella [18] | Plant response rating, Rice (rice (Oryza sativa))

CN(CCCC(F)(F)F)c1c(C#N)cccc1Oc1ncc(Cl)cn1 [Compound 126]
0: Plant response rating, Barnyardgrass [1, 19] | Plant response rating, Barnyardgrass [1, 20] | Plant response rating, Ragweed [2, 19] | Plant response rating, Ragweed [2, 20] | Plant response rating, Ryegrass, Italian [3, 19] | Plant response rating, Ryegrass, Italian [3, 20] | Plant response rating, Foxtail, Giant [4, 19] | Plant response rating, Foxtail, Giant [4, 20] | Plant response rating, Pigweed [5, 19] | Plant response rating, Pigweed [5, 20] | Plant response rating, Kochia (kochia (Kochia scoparia) [6]; [19]) | Plant response rating, Kochia (kochia (Kochia scoparia) [6]; [20]) | Barnyardgrass plant response rating ([7]; 31 g ai/ha) | Barnyardgrass plant response rating ([7]; 125 g ai/ha) | Blackgrass plant response rating [8, 21] | Blackgrass plant response rating [8, 23] | Ragweed plant response rating [9, 21] | Ragweed plant response rating [9, 23] | Ryegrass, Italian plant response rating [10, 21] | Ryegrass, Italian plant response rating [10, 23] | Wheat plant response rating [11, 21] | Wheat plant response rating [11, 23] | Corn plant response rating (corn (Zea mays); [21]) | Corn plant response rating (corn (Zea mays); [23]) | Galium plant response rating [12, 21] | Galium plant response rating [12, 23] | Foxtail, Giant plant response rating [13, 21] | Foxtail, Giant plant response rating [13, 23] | Pigweed plant response rating [14, 21] | Kochia plant response rating (kochia (Kochia scoparia) [15]; [21]) | Kochia plant response rating (kochia (Kochia scoparia) [15]; [23]) | Plant response rating, Ducksalad [16] | Plant response rating, Sedge, Umbrella [18] | Plant response rating, Rice (rice (Oryza sativa))
90: Plant response rating, Barnyardgrass [17]
10: Pigweed plant response rating [14, 23]

N#Cc1cccc(Oc2ncc(Cl)cn2)c1C(=O)CCC(F)(F)F [Compound 142]
0: Plant response rating, Barnyardgrass [1, 19] | Plant response rating, Barnyardgrass [1, 20] | Plant response rating, Ragweed [2, 19] | Plant response rating, Ragweed [2, 20] | Plant response rating, Ryegrass, Italian [3, 19] | Plant response rating, Ryegrass, Italian [3, 20] | Plant response rating, Foxtail, Giant [4, 19] | Plant response rating, Foxtail, Giant [4, 20] | Plant response rating, Pigweed [5, 19] | Plant response rating, Pigweed [5, 20] | Plant response rating, Kochia (kochia (Kochia scoparia) [6]; [19]) | Plant response rating, Kochia (kochia (Kochia scoparia) [6]; [20]) | Barnyardgrass plant response rating ([7]; 31 g ai/ha) | Barnyardgrass plant response rating ([7]; 125 g ai/ha) | Blackgrass plant response rating [8, 24] | Blackgrass plant response rating [8, 23] | Ragweed plant response rating [9, 24] | Ryegrass, Italian plant response rating [10, 24] | Ryegrass, Italian plant response rating [10, 23] | Wheat plant response rating [11, 24] | Wheat plant response rating [11, 23] | Corn plant response rating (corn (Zea mays); [24]) | Galium plant response rating [12, 24] | Foxtail, Giant plant response rating [13, 24] | Foxtail, Giant plant response rating [13, 23] | Pigweed plant response rating [14, 24] | Kochia plant response rating (kochia (Kochia scoparia) [15]; [24]) | Plant response rating, Ducksalad [16] | Plant response rating, Barnyardgrass [17] | Plant response rating, Sedge, Umbrella [18] | Plant response rating, Rice (rice (Oryza sativa))
10: Corn plant response rating (corn (Zea mays); [23]) | Kochia plant response rating (kochia (Kochia scoparia) [15]; [23])
20: Ragweed plant response rating [9, 23] | Galium plant response rating [12, 23] | Pigweed plant response rating [14, 23]

FC(F)(F)CCCc1c(Cl)cccc1Oc1ncc(Cl)cn1 [Compound 122]
50: Barnyardgrass plant response rating ([7]; 125 g ai/ha)
90: Plant response rating, Barnyardgrass [1, 20] | Plant response rating, Pigweed [5, 20]
40: Plant response rating, Foxtail, Giant [4, 20] | Plant response rating, Pigweed [5, 19] | Foxtail, Giant plant response rating [13, 23] | Plant response rating, Rice (rice (Oryza sativa))
30: Plant response rating, Barnyardgrass [1, 19] | Plant response rating, Ryegrass, Italian [3, 20] | Galium plant response rating [12, 21]
0: Plant response rating, Ragweed [2, 19] | Plant response rating, Ragweed [2, 20] | Plant response rating, Ryegrass, Italian [3, 19] | Plant response rating, Foxtail, Giant [4, 19] | Ragweed plant response rating [9, 21] | Ryegrass, Italian plant response rating [10, 21] | Wheat plant response rating [11, 21] | Wheat plant response rating [11, 23]
10: Plant response rating, Kochia (kochia (Kochia scoparia) [6]; [19]) | Barnyardgrass plant response rating ([7]; 31 g ai/ha) | Ragweed plant response rating [9, 23] | Corn plant response rating (corn (Zea mays); [21]) | Foxtail, Giant plant response rating [13, 21]
70: Plant response rating, Kochia (kochia (Kochia scoparia) [6]; [20]) | Pigweed plant response rating [14, 21]
80: Kochia plant response rating (kochia (Kochia scoparia) [15]; [21]) | Kochia plant response rating (kochia (Kochia scoparia) [15]; [23]) | Plant response rating, Barnyardgrass [17]
100: Pigweed plant response rating [14, 23] | Plant response rating, Ducksalad [16] | Plant response rating, Sedge, Umbrella [18]
60: Blackgrass plant response rating [8, 23] | Galium plant response rating [12, 23]
20: Blackgrass plant response rating [8, 21] | Ryegrass, Italian plant response rating [10, 23] | Corn plant response rating (corn (Zea mays); [23])
